Patent publication US20210078917A1, “FUNGICIDAL FERTILIZER COMPOSITION COMPRISING POTASSIUM PHOSPHITE AND GAMMA-POLY-GLUTAMIC ACID” (JIANGSU HUIFENG BIO AGRICULTURE CO., LTD., priority 2018, published 2021)

What was measured:
pepper = assay: Yield increase and quality test of pepper; type: in vivo; details: 40 g active ingredient per mu
Procedure: (§1) This fertilizer was applied on the basis of conventional fertilization in each treatment area. Fertilization method: The fertilizer was applied by spraying during the seedling stage of pepper. The yield, quality and control effect on disease on pepper were determined.

peanut = assay: Yield increase and quality test of peanut; type: in vivo
Procedure: (§2) […]. Fertilization method: The fertilizer was applied three times by spraying during the flowering and fruiting period. The yield, quality and control effect on disease on peanut were determined.

Disease (black fruit) = assay: Disease control test of Chinese wolfberry, black fruit; type: in vivo, Chinese wolfberry "Ningqi No. 7"
Procedure: The test was carried out in a Chinese wolfberry planting test plot in Koluke Town, Delingha City, Qinghai Province. Chinese wolfberry plants were all three-year-old seedlings of variety “Ningqi No. 7” at a density of 270 plants/667 m^2. This experiment was designed such that different plots were arranged in order. […] Fertilization method: It was applied together with other base fertilizers, by laying the fertilizer at the bottom of the planting pit, where the depth of the trench was 70 cm, the diameter of the pit was 80 cm, and the soil was mixed in and applied at the bottom when applying fertilizer. The yield, quality and control effect on disease on fresh Chinese wolfberry fruit were determined.

potatoes = assay: Yield increase test of potatoes (field); type: in vivo, potato
Procedure: (1) Yield increase and disease control test of potatoes with fungicidal fertilizer composition of the present invention. This test was conducted in 2017 in Anding District, Dingxi City, Gansu Province. This area is a typical semi-arid rain-fed agricultural area. The soil type is loessial soil, with deep soil layers and uniform soil fertility. The previous crop is rape. The fertilizer of the present invention was totally applied as a base fertilizer at a time. […] Ridging after flat planting in wide and narrow rows was adopted. The wide row spacing was 60 cm, the narrow row spacing was 30 cm, the plant spacing was 30 cm, the sowing depth was 15 cm, and the plant density was 58,000 plants·hm^−2. Other field management was the same as that in large area of field. The number of large- and medium-sized potatoes ([…]) per plant was randomly determined, and the relative increase rate of large- and medium-sized potatoes was determined. The yield per mu and the relative increase rate of yield were determined. The crude starch content and increase rate of crude starch content were determined. The control effect on root rot of potatoes was also determined.

[1] = test system: root rot, a soil-borne disease of soybeans; assay: Disease control test of soybean, root rot; type: in vivo
Procedure: (§3) Fertilization method: The fertilizer was co-applied with other fertilizers. The yield, quality and control effect on disease on soybean were determined.

soybean = assay: Yield increase test of soybean; type: in vivo; details: for Yield (667 M^2): per 667 M^2
Procedure: as §3

Disease (blight) = assay: Disease control test of pepper, blight; type: in vivo; details: 40 g active ingredient per mu
Procedure: as §1

tomato = assay: Yield increase and quality test of tomato; type: in vivo; details: 60 g active ingredient per mu
Procedure: […]. This fertilizer was applied on the basis of conventional fertilization in each treatment area. Fertilization method: The fertilizer was applied by spraying during the seedling stage of tomato. The yield, quality and control effect on disease on tomato were determined.

stem rot of peanut = assay: Disease control test of peanut, stem rot; type: in vivo
Procedure: as §2

Disease (rot) = assay: Disease control test of tomato, rot; type: in vivo; details: 60 g active ingredient per mu
Procedure: This fertilizer was applied on the basis of conventional fertilization in each treatment area. Fertilization method: The fertilizer was applied by spraying during the seedling stage of tomato. The yield, quality and control effect on disease on tomato were determined.

[2] = amount 50 g active ingredient/mu
[3] = amount 100 g active ingredient/mu
[4] = amount 400 g active ingredient/mu

γ-poly-glutamic acid
Quality: Vitamin C (pepper): 26.8 mg/100 g
Yield: Total yield (pepper): 3382 kg/mu
Yield: Weight of single fruit (pepper): 49.2 g
Quality: Linoleic acid (peanut; 30 g/mu): 44.52%
Quality: Protein (peanut; 30 g/mu): 22.91%
Yield (peanut; 30 g/mu): 285.3 kg/mu
Yield: Seed yield (peanut; 30 g/mu): 66.7%
Yield: Weight per 100 fruits (peanut; 30 g/mu): 113.4 g
Quality: Linoleic acid (peanut; 60 g/mu): 45.36%
Quality: Protein (peanut; 60 g/mu): 24.31%
Yield (peanut; 60 g/mu): 310.8 kg/mu
Yield: Seed yield (peanut; 60 g/mu): 69.1%
Yield: Weight per 100 fruits (peanut; 60 g/mu): 126.7 g
Disease (black fruit): Control effect (Disease (black fruit); 50 g/mu, 10 days after application): 17.56%
Disease (black fruit): Control effect (Disease (black fruit); 50 g/mu, 30 days after application): 10.99%
Disease (black fruit): Control effect (Disease (black fruit); 100 g/mu, 10 days after application): 29.17%
Disease (black fruit): Control effect (Disease (black fruit); 100 g/mu, 30 days after application): 21.35%
Crude starch content (potatoes; [2]): 16.1%
Fresh weight of large- and medium-sized potatoes (potatoes; [2]): 481.3 g/plant
Increase rate of crude starch content (potatoes; [2]): 1.9%
Increase rate of large- and medium-sized potatoes (potatoes; [2]): 6.5%
Increase rate of yield (potatoes; [2]): 4.4%
Yield (potatoes; [2]): 1343 kg/mu
Crude starch content (potatoes; [3]): 16.4%
Fresh weight of large- and medium-sized potatoes (potatoes; [3]): 492.6 g/plant
Increase rate of crude starch content (potatoes; [3]): 3.8%
Increase rate of large- and medium-sized potatoes (potatoes; [3]): 9.0%
Increase rate of yield (potatoes; [3]): 7.5%
Yield (potatoes; [3]): 1383 kg/mu
Crude starch content (potatoes; [4]): 17.1%
Fresh weight of large- and medium-sized potatoes (potatoes; [4]): 499.3 g/plant
Increase rate of crude starch content (potatoes; [4]): 8.2%
Increase rate of large- and medium-sized potatoes (potatoes; [4]): 10.5%
Increase rate of yield (potatoes; [4]): 10.6%
Yield (potatoes; [4]): 1422 kg/mu
Control effect ([1]; 15 g/mu, 12 days after application): 9.70%
Control effect ([1]; 15 g/mu, 35 days after application): 4.22%
Control effect ([1]; 50 g/mu, 12 days after application): 14.20%
Control effect ([1]; 50 g/mu, 35 days after application): 7.86%
Control effect ([1]; 100 g/mu, 12 days after application): 20.13%
Control effect ([1]; 100 g/mu, 35 days after application): 10.67%
Control effect ([1]; 300 g/mu, 12 days after application): 22.71%
Control effect ([1]; 300 g/mu, 35 days after application): 15.76%
Control effect ([1]; 600 g/mu, 12 days after application): 27.52%
Control effect ([1]; 600 g/mu, 35 days after application): 18.89%
Branches (soybean; 15 g/mu): 17.5 count
Increase rate (branches) (soybean; 15 g/mu): 1.2%
Increase rate (weight per 100 grains) (soybean; 15 g/mu): 2.8%
Increase rate (yield) (soybean; 15 g/mu): 2.9%
Weight per 100 grains (soybean; 15 g/mu): 25.43 g
Yield (667 M^2) (soybean; 15 g/mu): 181.7
Branches (soybean; 50 g/mu): 17.8 count
Increase rate (branches) (soybean; 50 g/mu): 2.7%
Increase rate (weight per 100 grains) (soybean; 50 g/mu): 3.5%
Increase rate (yield) (soybean; 50 g/mu): 4.5%
Weight per 100 grains (soybean; 50 g/mu): 25.61 g
Yield (667 M^2) (soybean; 50 g/mu): 184.5
Branches (soybean; 100 g/mu): 18.0 count
Increase rate (branches) (soybean; 100 g/mu): 4.1%
Increase rate (weight per 100 grains) (soybean; 100 g/mu): 4.1%
Increase rate (yield) (soybean; 100 g/mu): 5.7%
Weight per 100 grains (soybean; 100 g/mu): 25.75 g
Yield (667 M^2) (soybean; 100 g/mu): 186.7
Branches (soybean; 300 g/mu): 18.1 count
Increase rate (branches) (soybean; 300 g/mu): 4.6%
Increase rate (weight per 100 grains) (soybean; 300 g/mu): 5.3%
Increase rate (yield) (soybean; 300 g/mu): 7.3%
Weight per 100 grains (soybean; 300 g/mu): 26.05 g
Yield (667 M^2) (soybean; 300 g/mu): 189.5
Branches (soybean; 600 g/mu): 18.3 count
Increase rate (branches) (soybean; 600 g/mu): 5.7%
Increase rate (weight per 100 grains) (soybean; 600 g/mu): 6.8%
Increase rate (yield) (soybean; 600 g/mu): 10.5%
Weight per 100 grains (soybean; 600 g/mu): 26.42 g
Yield (667 M^2) (soybean; 600 g/mu): 195.1
Disease (blight): Control effect (Disease (blight); 10 days after application): 26.27%
Disease (blight): Control effect (Disease (blight); 42 days after application): 10.26%
Quality: Amino acid (tomato): 610.17 mg/100 kg
Quality: Vitamin C (tomato): 17.32 mg/100 g
Yield: Total yield (tomato): 3519 kg/mu
Yield: Weight of single fruit (tomato): 21.7 g
Disease (Stem rot): Control effect (stem rot of peanut; 30 g/mu, 10 days after application): 20.41%
Disease (Stem rot): Control effect (stem rot of peanut; 30 g/mu, 30 days after application): 6.21%
Disease (Stem rot): Control effect (stem rot of peanut; 60 g/mu, 10 days after application): 31.29%
Disease (Stem rot): Control effect (stem rot of peanut; 60 g/mu, 30 days after application): 11.58%
Disease (rot): Control effect (Disease (rot); 12 days after application): 21.35%
Disease (rot): Control effect (Disease (rot); 45 days after application): 7.26%
